System: brain of rats subjected to severe traumatic brain injury (sTBI)
Test: Ingenuity pathway analysis of differentially regulated genes after sTBI (canonical pathways, diseases and molecular functions; Example 4)
Design: species or system rat
Settings: TBI + 5 mg/kg LMW-DS
Procedure: Pathway analysis of the differentially regulated genes was carried out using the Ingenuity pathway analysis package. The analysis was performed with special reference to pathways and molecular processes and diseases associated with neurodegenerative disease, including dementia, Alzheimer's disease, ALS, TBI and stroke, and with scarring and fibrosis, including glaucoma and normal pressure hydrocephalus (NPH) after subarachnoid haemorrhage.

[1] = 7 days after TBI, relative to control

sodium salt of dextran sulfate [LMW-DS]
2.236: z score, Ingenuity canonical pathway: Fcγ Receptor-mediated Phagocytosis in Macrophages and Monocytes [1] | z score, Ingenuity canonical pathway: Production of Nitric Oxide and Reactive Oxygen Species in Macrophages [1]
−0.632: z score, Ingenuity canonical pathway: Adrenomedullin signaling pathway [1]
Activated: Effect on diseases or functions annotation: Secretion of molecule (2 days after TBI) | Effect on diseases or functions annotation: Transport of molecule (2 days after TBI) | Diseases or functions annotation: Abdominal adenocarcinoma (7 days after TBI) | Diseases or functions annotation: Abdominal neoplasm (7 days after TBI) | Diseases or functions annotation: Angiogenesis (7 days after TBI) | Diseases or functions annotation: Cancer (7 days after TBI) | Diseases or functions annotation: Cancer of cells (7 days after TBI) | Diseases or functions annotation: Cancer of secretory structure (7 days after TBI) | Diseases or functions annotation: Cell cycle progression (7 days after TBI) | Diseases or functions annotation: Cell death (7 days after TBI) | Diseases or functions annotation: Cell death of epithelial cells (7 days after TBI) | Diseases or functions annotation: Cell movement (7 days after TBI) | Diseases or functions annotation: Cell movement of endothelial cells (7 days after TBI) | Diseases or functions annotation: Cell movement of myeloid cells (7 days after TBI) | Diseases or functions annotation: Cell movement of tumor cell lines (7 days after TBI) | Diseases or functions annotation: Cell survival (7 days after TBI) | Diseases or functions annotation: Cell viability (7 days after TBI) | Diseases or functions annotation: Cell viability of tumor cell lines (7 days after TBI) | Diseases or functions annotation: Cellular homeostasis (7 days after TBI) | Diseases or functions annotation: Chemotaxis (7 days after TBI) | Diseases or functions annotation: Development of body axis (7 days after TBI) | Diseases or functions annotation: Development of body trunk (7 days after TBI) | Diseases or functions annotation: Development of connective tissue cells (7 days after TBI) | Diseases or functions annotation: Development of epithelial tissue (7 days after TBI) | Diseases or functions annotation: Development of head (7 days after TBI) | Diseases or functions annotation: Development of neurons (7 days after TBI) | Diseases or functions annotation: Development of sensory organ (7 days after TBI) | Diseases or functions annotation: Development of vasculature (7 days after TBI) | Diseases or functions annotation: Differentiation of bone (7 days after TBI) | Diseases or functions annotation: Differentiation of bone cells (7 days after TBI) | Diseases or functions annotation: Differentiation of connective tissue cells (7 days after TBI) | Diseases or functions annotation: Expression of RNA (7 days after TBI) | Diseases or functions annotation: Extracranial solid tumor (7 days after TBI) | Diseases or functions annotation: Failure of kidney (7 days after TBI) | Diseases or functions annotation: Formation of eye (7 days after TBI) | Diseases or functions annotation: Genital tumor (7 days after TBI) | Diseases or functions annotation: Genitourinary carcinoma (7 days after TBI) | Diseases or functions annotation: Genitourinary tumor (7 days after TBI) | Diseases or functions annotation: Glucose metabolism disorder (7 days after TBI) | Diseases or functions annotation: Growth of tumor (7 days after TBI) | Diseases or functions annotation: Invasion of cells (7 days after TBI) | Diseases or functions annotation: Leukocyte migration (7 days after TBI) | Diseases or functions annotation: Malignant genitourinary solid tumor (7 days after TBI) | Diseases or functions annotation: Malignant solid tumor (7 days after TBI) | Diseases or functions annotation: Microtubule dynamics (7 days after TBI) | Diseases or functions annotation: Migration of cells (7 days after TBI) | Diseases or functions annotation: Migration of endothelial cells (7 days after TBI) | Diseases or functions annotation: Necrosis (7 days after TBI) | Diseases or functions annotation: Necrosis of epithelial tissue (7 days after TBI) | Diseases or functions annotation: Neoplasia of cells (7 days after TBI) | Diseases or functions annotation: Non-hematological solid tumor (7 days after TBI) | Diseases or functions annotation: Non-melanoma solid tumor (7 days after TBI) | Diseases or functions annotation: Obesity (7 days after TBI) | Diseases or functions annotation: Organization of cytoskeleton (7 days after TBI) | Diseases or functions annotation: Pelvic tumor (7 days after TBI) | Diseases or functions annotation: Peripheral vascular disease (7 days after TBI) | Diseases or functions annotation: Quantity of cells (7 days after TBI) | Diseases or functions annotation: Quantity of connective tissue (7 days after TBI) | Diseases or functions annotation: Renal impairment (7 days after TBI) | Diseases or functions annotation: Secretion of molecule (7 days after TBI) | Diseases or functions annotation: Size of body (7 days after TBI) | Diseases or functions annotation: Solid tumor (7 days after TBI) | Diseases or functions annotation: Synthesis of lipid (7 days after TBI) | Diseases or functions annotation: Transcription (7 days after TBI) | Diseases or functions annotation: Transcription of RNA (7 days after TBI) | Diseases or functions annotation: Transport of molecule (7 days after TBI) | Diseases or functions annotation: Vasculogenesis (7 days after TBI)
−1: z score, Ingenuity canonical pathway: Wnt/β-catenin Signaling [1]
Inhibited: Effect on diseases or functions annotation: Resorption of bone (2 days after TBI) | Effect on diseases or functions annotation: Size of body (2 days after TBI) | Effect on diseases or functions annotation: Synthesis of hormone (2 days after TBI) | Effect on diseases or functions annotation: Transcription of RNA (2 days after TBI) | Effect on diseases or functions annotation: Vasculogenesis (2 days after TBI) | Diseases or functions annotation: Abdominal cancer (7 days after TBI) | Diseases or functions annotation: Abdominal carcinoma (7 days after TBI) | Diseases or functions annotation: Adenocarcinoma (7 days after TBI) | Diseases or functions annotation: Apoptosis (7 days after TBI) | Diseases or functions annotation: Apoptosis of tumor cell lines (7 days after TBI) | Diseases or functions annotation: Bleeding (7 days after TBI) | Diseases or functions annotation: Breast or colorectal cancer (7 days after TBI) | Diseases or functions annotation: Breast or ovarian cancer (7 days after TBI) | Diseases or functions annotation: Breast or pancreatic cancer (7 days after TBI) | Diseases or functions annotation: Carcinoma (7 days after TBI) | Diseases or functions annotation: Cell death of tumor cell lines (7 days after TBI) | Diseases or functions annotation: Concentration of lipid (7 days after TBI) | Diseases or functions annotation: Development of genitourinary system (7 days after TBI) | Diseases or functions annotation: Digestive organ tumor (7 days after TBI) | Diseases or functions annotation: Digestive system cancer (7 days after TBI) | Diseases or functions annotation: Endocrine gland tumor (7 days after TBI) | Diseases or functions annotation: Gastrointestinal tumor (7 days after TBI) | Diseases or functions annotation: Growth of connective tissue (7 days after TBI) | Diseases or functions annotation: Growth of epithelial tissue (7 days after TBI) | Diseases or functions annotation: Head and neck cancer (7 days after TBI) | Diseases or functions annotation: Head and neck tumor (7 days after TBI) | Diseases or functions annotation: Hematologic cancer (7 days after TBI) | Diseases or functions annotation: Hematologic cancer of cells (7 days after TBI) | Diseases or functions annotation: Hematopoietic neoplasm (7 days after TBI) | Diseases or functions annotation: Intestinal tumor (7 days after TBI) | Diseases or functions annotation: Lymphatic system tumor (7 days after TBI) | Diseases or functions annotation: Lymphocytic cancer (7 days after TBI) | Diseases or functions annotation: Lymphocytic neoplasm (7 days after TBI) | Diseases or functions annotation: Lymphoid cancer (7 days after TBI) | Diseases or functions annotation: Lymphoma (7 days after TBI) | Diseases or functions annotation: Lymphoproliferative disorder (7 days after TBI) | Diseases or functions annotation: Lymphoreticular neoplasm (7 days after TBI) | Diseases or functions annotation: Morbidity or mortality (7 days after TBI) | Diseases or functions annotation: Neoplasia of leukocytes (7 days after TBI) | Diseases or functions annotation: Nonhematologic malignant neoplasm (7 days after TBI) | Diseases or functions annotation: Organismal death (7 days after TBI) | Diseases or functions annotation: Proliferation of connective tissue cells (7 days after TBI) | Diseases or functions annotation: Proliferation of epithelial cells (7 days after TBI) | Diseases or functions annotation: Sensory system development (7 days after TBI) | Diseases or functions annotation: Skin lesion (7 days after TBI) | Diseases or functions annotation: Skin tumor (7 days after TBI) | Diseases or functions annotation: Tumorigenesis of tissue (7 days after TBI)
2.646: z score, Ingenuity canonical pathway: IL-8 Signaling [1]
−2: z score, Ingenuity canonical pathway: cAMP-mediated signaling [1]
2: z score, Ingenuity canonical pathway: GNRH Signaling [1] | z score, Ingenuity canonical pathway: PKCθ Signaling in T Lymphocytes [1]
1.941: z score, Ingenuity canonical pathway: Neuroinflammation Signaling Pathway [1]
1.134: z score, Ingenuity canonical pathway: HMGB1 Signaling [1]
1: z score, Ingenuity canonical pathway: Cardiac Hypertrophy Signaling [1] | z score, Ingenuity canonical pathway: ERK/MAPK Signaling [1] | z score, Ingenuity canonical pathway: IL-1 Signaling [1] | z score, Ingenuity canonical pathway: IL-6 Signaling [1] | z score, Ingenuity canonical pathway: Phospholipase C Signaling [1] | z score, Ingenuity canonical pathway: Signaling by Rho Family GTPases [1] | z score, Ingenuity canonical pathway: Synaptic Long Term Depression [1] | z score, Ingenuity canonical pathway: mTOR Signaling [1]
-1: z score, Ingenuity canonical pathway: Osteoarthritis Pathway [1]
−1.342: z score, Ingenuity canonical pathway: PPAR Signaling [1] | z score, Ingenuity canonical pathway: Protein Kinase A Signaling [1]
1.897: z score, Ingenuity canonical pathway: Dendritic Cell Maturation [1]
−0.447: z score, Ingenuity canonical pathway: ERK5 Signaling [1]
1.342: z score, Ingenuity canonical pathway: Leukocyte Extravasation Signaling [1]
1.89: z score, Ingenuity canonical pathway: Acute Phase Response Signaling [1] | z score, Ingenuity canonical pathway: ILK Signaling [1] | z score, Ingenuity canonical pathway: PI3K Signaling in B Lymphocytes [1]
1.633: z score, Ingenuity canonical pathway: Endothelin-1 Signaling [1]
2.53: z score, Ingenuity canonical pathway: Role of NFAT in Regulation of the Immune Response [1]
−0.378: z score, Ingenuity canonical pathway: Colorectal Cancer Metastasis Signaling [1]
